Source: ChEMBL document CHEMBL3826948, “Alkyl substituted aminal derivatives of HCV NS5A inhibitor MK-8742” (Bioorg Med Chem Lett, 2016)
pEC50: −log10 of the molar value.

Assays:
[1] = Inhibition of NS5A in HCV genotype 1b; parameters: species or system Hepatitis C virus subtype 1b
[2] = Inhibition of NS5A in HCV genotype 2a; parameters: species or system Hepatitis C virus subtype 2a
[3] = Inhibition of NS5A in HCV genotype 4a; parameters: species or system Hepatitis C virus subtype 4a
Nonstructural protein 5A [4] = target: Nonstructural protein 5A (Hepatitis C virus, UniProt Q5L478, Y93H); experiment: Inhibition of NS5A in HCV genotype 1a Y93H mutant; parameters: species or system Hepatitis C virus subtype 1a
[5] = Inhibition of NS5A in HCV genotype 1a; parameters: species or system Hepatitis C virus subtype 1a
Nonstructural protein 5A [6] = target: Nonstructural protein 5A (Hepatitis C virus, UniProt Q5L478, L31V); experiment: Inhibition of NS5A in HCV genotype 1a L31V mutant; parameters: species or system Hepatitis C virus subtype 1a
[7] = Inhibition of NS5A in HCV genotype 3a; parameters: species or system Hepatitis C virus subtype 3a
[8] = Inhibition of NS5A in HCV genotype 2b; parameters: species or system Hepatitis C virus subtype 2b
[9] = Oral bioavailability in Sprague-Dawley rat at 10 mg/kg; assay type: ADME, organism-based; conditions: in vivo
[10] = Inhibition of NS5A in HCV genotype 4a assessed as replicon RNA levels by real time PCR based cell based assay; parameters: species or system Hepatitis C virus subtype 4a; conditions: Hepatitis C virus
[11] = Inhibition of NS5A in HCV genotype 1b assessed as replicon RNA levels by real time PCR based cell based assay; parameters: species or system Hepatitis C virus subtype 1b; conditions: Hepatitis C virus
[12] = Inhibition of NS5A in HCV genotype 3a assessed as replicon RNA levels by real time PCR based cell based assay; parameters: species or system Hepatitis C virus subtype 3a; conditions: Hepatitis C virus
[13] = Inhibition of NS5A in HCV genotype 2a assessed as replicon RNA levels by real time PCR based cell based assay; parameters: species or system Hepatitis C virus subtype 2a; conditions: Hepatitis C virus
[14] = Cmax in Sprague-Dawley rat at 10 mg/kg, po; assay type: ADME, organism-based; parameters: dose 10 mg/kg, route oral; conditions: in vivo
[15] = Clearance in Sprague-Dawley rat at 10 mg/kg po or 2 mg/kg iv; assay type: ADME, organism-based; conditions: in vivo
[16] = Inhibition of NS5A in HCV genotype 2b assessed as replicon RNA levels by real time PCR based cell based assay; parameters: species or system Hepatitis C virus subtype 2b; conditions: Hepatitis C virus
[17] = Inhibition of NS5A in HCV genotype 1a assessed as replicon RNA levels by real time PCR based cell based assay; parameters: species or system Hepatitis C virus subtype 1a; conditions: Hepatitis C virus
[18] = Half life in Sprague-Dawley rat at 10 mg/kg po or 2 mg/kg iv; assay type: ADME, organism-based; conditions: in vivo
[19] = AUC in Sprague-Dawley rat at 10 mg/kg, po; assay type: ADME, organism-based; conditions: in vivo
[20] = Half life in Sprague-Dawley rat at 5 mg/kg po or 2 mg/kg iv; assay type: ADME, organism-based; conditions: in vivo
[21] = Cmax in Sprague-Dawley rat at 5 mg/kg, po; assay type: ADME, organism-based; parameters: dose 5 mg/kg, route oral; conditions: in vivo
[22] = Clearance in Sprague-Dawley rat at 5 mg/kg po or 2 mg/kg iv; assay type: ADME, organism-based; conditions: in vivo
[23] = AUC in Sprague-Dawley rat at 5 mg/kg, po; assay type: ADME, organism-based; conditions: in vivo
[24] = Oral bioavailability in Sprague-Dawley rat at 5 mg/kg; assay type: ADME, organism-based; conditions: in vivo

Nonstructural protein 5A (Hepatitis C virus, UniProt Q5L478, Y93H), sequence (Q5L478 entry or part of it Y93H): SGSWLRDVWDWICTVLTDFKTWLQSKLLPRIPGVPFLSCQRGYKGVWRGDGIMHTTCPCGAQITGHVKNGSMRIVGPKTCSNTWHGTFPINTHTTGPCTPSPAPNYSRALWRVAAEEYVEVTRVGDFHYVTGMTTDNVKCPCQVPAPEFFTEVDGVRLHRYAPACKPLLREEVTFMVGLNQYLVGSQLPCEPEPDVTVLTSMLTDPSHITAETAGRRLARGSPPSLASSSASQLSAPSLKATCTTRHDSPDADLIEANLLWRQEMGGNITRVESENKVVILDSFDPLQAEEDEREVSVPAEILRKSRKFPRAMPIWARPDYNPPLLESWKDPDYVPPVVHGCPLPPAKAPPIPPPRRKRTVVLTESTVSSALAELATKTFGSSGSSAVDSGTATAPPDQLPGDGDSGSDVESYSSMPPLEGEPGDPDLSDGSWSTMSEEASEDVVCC

Row | Compound | pEC50 [10] | pEC50 [11] | pEC50 [12] | pEC50 [13] | pEC50 [16] | pEC50 [17] | other results
1 | COC(=O)N[C@H](C(=O)N1CCC[C@H]1c1ncc(-c2ccc3c(c2)OCn2c-3cc3cc(-c4cnc([C@@H]5CCCN5C(=O)[C@@H](NC(=O)OC)C(C)C)[nH]4)ccc32)[nH]1)C(C)C |  |  |  |  |  |  | pEC50 [1]: 11.10; pEC50 [2]: 11.15; pEC50 [3]: 10.22; pEC50 (Nonstructural protein 5A [4]): 7.00; pEC50 [5]: 11.00; pEC50 (Nonstructural protein 5A [6]): 8.52; pEC50 [7]: 9.30; pEC50 [8]: 7.51
2 | COC(=O)N[C@H](C(=O)N1CCC[C@H]1c1nc(-c2ccc3c(c2)O[C@@H](c2ccccc2)n2c-3cc3cc(-c4c[nH]c([C@@H]5CCCN5C(=O)[C@@H](NC(=O)OC)C(C)C)n4)ccc32)c[nH]1)C(C)C [ELBASVIR] |  |  |  |  |  |  | pEC50 [1]: 11.52; pEC50 [2]: 11.52; pEC50 [3]: 11.52; pEC50 (Nonstructural protein 5A [4]): 8.70; pEC50 [5]: 11.40; pEC50 (Nonstructural protein 5A [6]): 9.30; pEC50 [7]: 10.70; pEC50 [8]: 8.52
3 | COC(=O)N[C@H](C(=O)N1CCC[C@H]1c1ncc(-c2ccc3c(c2)OC(CC(C)(C)C)n2c-3cc3cc(-c4cnc([C@@H]5CCCN5C(=O)[C@@H](NC(=O)OC)C(C)C)[nH]4)ccc32)[nH]1)C(C)C (some centres not stated) | 10.70 | 11.70 | 8.15 | 9.00 | 7.14 | 11.40 | 
4 | CCC1Oc2cc(-c3cnc([C@@H]4CCCN4C(=O)[C@@H](NC(=O)OC)C(C)C)[nH]3)ccc2-c2cc3cc(-c4cnc([C@@H]5CCCN5C(=O)[C@@H](NC(=O)OC)C(C)C)[nH]4)ccc3n21 (some centres not stated) | 10.40 | 11.70 | 9.52 | 12.00 | 8.70 | 11.70 | half-life [20]: 216 min; Cmax [21]: 1220 nM; clearance [22]: 5.2 mL/min/kg; AUC [23]: 8.4 µM·h; bioavailability [24]: 43%

Continued by rising pEC50 [10], values first:

Row | pEC50 [10] | pEC50 [11] | pEC50 [12] | pEC50 [13] | pEC50 [16] | pEC50 [17] | Compound | other results
5 | 10.52 | 11.52 | 10.05 | 11.15 | 7.64 | 11.52 | COC(=O)N[C@H](C(=O)N1CCC[C@H]1c1ncc(-c2ccc3c(c2)OC(C)n2c-3cc3cc(-c4cnc([C@@H]5CCCN5C(=O)[C@@H](NC(=O)OC)C(C)C)[nH]4)ccc32)[nH]1)C(C)C (some centres not stated) | bioavailability [9]: 26%; Cmax [14]: 990 nM; clearance [15]: 8.5 mL/min/kg; half-life [18]: 132 min; AUC [19]: 6.2 µM·h
6 | 10.70 | 11.40 | 10.00 | 11.70 | 9.00 | 11.52 | COC(=O)N[C@H](C(=O)N1CCC[C@H]1c1ncc(-c2ccc3c(c2)OC(C2CC2)n2c-3cc3cc(-c4cnc([C@@H]5CCCN5C(=O)[C@@H](NC(=O)OC)C(C)C)[nH]4)ccc32)[nH]1)C(C)C (some centres not stated) | half-life [20]: 204 min; Cmax [21]: 740 nM; clearance [22]: 6.2 mL/min/kg; AUC [23]: 4.4 µM·h; bioavailability [24]: 27%
7 | 10.70 | 12.15 | 9.40 | 11.10 | 8.00 | 12.10 | COC(=O)N[C@H](C(=O)N1CCC[C@H]1c1ncc(-c2ccc3c(c2)OC(CC(C)C)n2c-3cc3cc(-c4cnc([C@@H]5CCCN5C(=O)[C@@H](NC(=O)OC)C(C)C)[nH]4)ccc32)[nH]1)C(C)C (mixture of isomers) | 
8 | 10.70 | 12.00 | 9.70 | 11.00 | 7.92 | 12.00 | CCCCCCC1Oc2cc(-c3cnc([C@@H]4CCCN4C(=O)[C@@H](NC(=O)OC)C(C)C)[nH]3)ccc2-c2cc3cc(-c4cnc([C@@H]5CCCN5C(=O)[C@@H](NC(=O)OC)C(C)C)[nH]4)ccc3n21 (some centres not stated) | 
